# Reference: US7906137B2, “Delivery agents for enhancing mucosal absorption of therapeutic agents” (Mediplex Corporation, Korea, priority 2004, dated 2011)
# Target: insulin (Homo sapiens, UniProt P01308)
# Experiment: Dissociation of high order protein aggregates by circular dichroism
# Format: physicochemical
# Conditions: 0.18 mM insulin, 0.18-37 mM MP-DCK, CD 300 to 250 nm, room temperature (FIG. 5)
# Description: A circular dichroism spectropolarimeter (Jasco J-715, Tokyo, Japan) was used to measure the effect of a delivery carrier on the aggregation state of insulin. Solutions containing 0.18 mM insulin and different concentration of MP-DCK (0.18-37 mM) were scanned from 300 to 250 nm at room temperature at a scanning speed of 50 nm/min using a cuvette with a pathlength of 0.1 cm. The results of the test are illustrated in FIG. 5.
# Sequence of insulin (P01308 25-54 limits assumed): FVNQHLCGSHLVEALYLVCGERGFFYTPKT
# Sequence of insulin (P01308 90-110 limits assumed): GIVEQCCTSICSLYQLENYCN
compound,measurement,value
"COC(=O)[C@H](CCCCN)NC(=O)CC[C@@H](C)[C@H]1CC[C@H]2[C@@H]3CC[C@@H]4C[C@H](O)CC[C@]4(C)[C@H]3C[C@H](O)[C@]12C [DCK, N^α-deoxychoyl-L-lysine-methylester]",aggregation state of insulin,decrease the aggregation state of the insulin
